± gives the expanded uncertainty stated by the source.
Assay: xn = mol fraction of the nth substance listed
Settings: 101 kPa, Liquid, Scientific instruments device model 9700

Work on `[I-].[K+]` [potassium iodide] + C[S+](C)[O-] yielded an electrical conductivity (309.15 K, x1 = 0.0001281) of 0.0079 ± 0.0075 S/m, an electrical conductivity (309.15 K, x1 = 0.0001586) of 0.00954 ± 0.0093 S/m and an electrical conductivity (309.15 K, x1 = 0.0003312) of 0.0198 ± 0.018 S/m. For the same molecule, the electrical conductivity (309.15 K, x1 = 0.0006135) was 0.0364 ± 0.022 S/m, the electrical conductivity (309.15 K, x1 = 0.001095) was 0.0603 ± 0.019 S/m and the electrical conductivity (309.15 K, x1 = 0.002002) was 0.103 ± 0.019 S/m. The electrical conductivity (309.15 K, x1 = 0.005707) was 0.243 ± 0.018 S/m, the electrical conductivity (309.15 K, x1 = 0.01) was 0.465 ± 0.016 S/m and the electrical conductivity (309.15 K, x1 = 0.0197) was 0.823 ± 0.0094 S/m. The electrical conductivity (309.15 K, x1 = 0.04) was 1.124 ± 0.009 S/m, the electrical conductivity (309.15 K, x1 = 0.0499) was 1.246 ± 0.008 S/m and the electrical conductivity (309.15 K, x1 = 0.0707) was 1.286 ± 0.008 S/m. It also gave an electrical conductivity (311.15 K, x1 = 0.0001281) of 0.00818 ± 0.0078 S/m, an electrical conductivity (311.15 K, x1 = 0.0001586) of 0.00991 ± 0.0096 S/m and an electrical conductivity (311.15 K, x1 = 0.0003312) of 0.0205 ± 0.018 S/m. For the same molecule, the electrical conductivity (311.15 K, x1 = 0.0006135) was 0.0376 ± 0.022 S/m, the electrical conductivity (311.15 K, x1 = 0.001095) was 0.0621 ± 0.02 S/m and the electrical conductivity (311.15 K, x1 = 0.002002) was 0.106 ± 0.02 S/m. It also gave an electrical conductivity (311.15 K, x1 = 0.005707) of 0.251 ± 0.019 S/m, an electrical conductivity (311.15 K, x1 = 0.01) of 0.48 ± 0.017 S/m and an electrical conductivity (311.15 K, x1 = 0.0197) of 0.849 ± 0.0097 S/m. For the same molecule, the electrical conductivity (311.15 K, x1 = 0.04) was 1.161 ± 0.009 S/m, the electrical conductivity (311.15 K, x1 = 0.0499) was 1.282 ± 0.008 S/m and the electrical conductivity (311.15 K, x1 = 0.0707) was 1.342 ± 0.008 S/m. It also gave an electrical conductivity (313.15 K, x1 = 0.0001281) of 0.00848 ± 0.008 S/m, an electrical conductivity (313.15 K, x1 = 0.0001586) of 0.0103 ± 0.0099 S/m and an electrical conductivity (313.15 K, x1 = 0.0003312) of 0.0212 ± 0.019 S/m. The electrical conductivity (313.15 K, x1 = 0.0006135) was 0.0389 ± 0.023 S/m, the electrical conductivity (313.15 K, x1 = 0.001095) was 0.064 ± 0.02 S/m and the electrical conductivity (313.15 K, x1 = 0.002002) was 0.11 ± 0.02 S/m. It also gave an electrical conductivity (313.15 K, x1 = 0.005707) of 0.258 ± 0.019 S/m, an electrical conductivity (313.15 K, x1 = 0.01) of 0.494 ± 0.017 S/m and an electrical conductivity (313.15 K, x1 = 0.0197) of 0.874 ± 0.01 S/m. It also gave an electrical conductivity (313.15 K, x1 = 0.04) of 1.195 ± 0.009 S/m, an electrical conductivity (313.15 K, x1 = 0.0499) of 1.319 ± 0.008 S/m and an electrical conductivity (313.15 K, x1 = 0.0707) of 1.374 ± 0.008 S/m. For the same molecule, the electrical conductivity (315.15 K, x1 = 0.0001281) was 0.00879 ± 0.0083 S/m, the electrical conductivity (315.15 K, x1 = 0.0001586) was 0.0107 ± 0.01 S/m and the electrical conductivity (315.15 K, x1 = 0.0003312) was 0.022 ± 0.019 S/m. The electrical conductivity (315.15 K, x1 = 0.0006135) was 0.0401 ± 0.024 S/m, the electrical conductivity (315.15 K, x1 = 0.001095) was 0.0658 ± 0.021 S/m and the electrical conductivity (315.15 K, x1 = 0.002002) was 0.113 ± 0.021 S/m. The electrical conductivity (315.15 K, x1 = 0.005707) was 0.266 ± 0.02 S/m, the electrical conductivity (315.15 K, x1 = 0.01) was 0.508 ± 0.018 S/m and the electrical conductivity (315.15 K, x1 = 0.0197) was 0.9 ± 0.01 S/m. It also gave an electrical conductivity (315.15 K, x1 = 0.04) of 1.233 ± 0.01 S/m, an electrical conductivity (315.15 K, x1 = 0.0499) of 1.366 ± 0.008 S/m and an electrical conductivity (315.15 K, x1 = 0.0707) of 1.408 ± 0.009 S/m. For the same molecule, the electrical conductivity (317.15 K, x1 = 0.0001281) was 0.00918 ± 0.0085 S/m, the electrical conductivity (317.15 K, x1 = 0.0001586) was 0.011 ± 0.011 S/m and the electrical conductivity (317.15 K, x1 = 0.0003312) was 0.0227 ± 0.02 S/m. For the same molecule, the electrical conductivity (317.15 K, x1 = 0.0006135) was 0.0413 ± 0.024 S/m, the electrical conductivity (317.15 K, x1 = 0.001095) was 0.0676 ± 0.021 S/m and the electrical conductivity (317.15 K, x1 = 0.002002) was 0.116 ± 0.021 S/m. It also gave an electrical conductivity (317.15 K, x1 = 0.005707) of 0.274 ± 0.021 S/m, an electrical conductivity (317.15 K, x1 = 0.01) of 0.522 ± 0.018 S/m and an electrical conductivity (317.15 K, x1 = 0.0197) of 0.922 ± 0.011 S/m. The electrical conductivity (317.15 K, x1 = 0.04) was 1.271 ± 0.01 S/m, the electrical conductivity (317.15 K, x1 = 0.0499) was 1.39 ± 0.009 S/m and the electrical conductivity (317.15 K, x1 = 0.0707) was 1.469 ± 0.009 S/m. The electrical conductivity (319.15 K, x1 = 0.0001281) was 0.00954 ± 0.0087 S/m, the electrical conductivity (319.15 K, x1 = 0.0001586) was 0.0114 ± 0.011 S/m and the electrical conductivity (319.15 K, x1 = 0.0003312) was 0.0236 ± 0.02 S/m. The electrical conductivity (319.15 K, x1 = 0.0006135) was 0.0424 ± 0.025 S/m, the electrical conductivity (319.15 K, x1 = 0.001095) was 0.0694 ± 0.022 S/m and the electrical conductivity (319.15 K, x1 = 0.002002) was 0.119 ± 0.022 S/m. For the same molecule, the electrical conductivity (319.15 K, x1 = 0.005707) was 0.281 ± 0.021 S/m, the electrical conductivity (319.15 K, x1 = 0.01) was 0.536 ± 0.019 S/m and the electrical conductivity (319.15 K, x1 = 0.0197) was 0.945 ± 0.011 S/m. It also gave an electrical conductivity (319.15 K, x1 = 0.04) of 1.309 ± 0.01 S/m, an electrical conductivity (319.15 K, x1 = 0.0499) of 1.434 ± 0.009 S/m and an electrical conductivity (319.15 K, x1 = 0.0707) of 1.527 ± 0.009 S/m. For the same molecule, the electrical conductivity (321.15 K, x1 = 0.0001281) was 0.01 ± 0.0089 S/m, the electrical conductivity (321.15 K, x1 = 0.0001586) was 0.0118 ± 0.011 S/m and the electrical conductivity (321.15 K, x1 = 0.0003312) was 0.0245 ± 0.021 S/m. For the same molecule, the electrical conductivity (321.15 K, x1 = 0.0006135) was 0.0436 ± 0.025 S/m, the electrical conductivity (321.15 K, x1 = 0.001095) was 0.0712 ± 0.023 S/m and the electrical conductivity (321.15 K, x1 = 0.002002) was 0.122 ± 0.022 S/m. It also gave an electrical conductivity (321.15 K, x1 = 0.005707) of 0.289 ± 0.022 S/m, an electrical conductivity (321.15 K, x1 = 0.01) of 0.549 ± 0.019 S/m and an electrical conductivity (321.15 K, x1 = 0.0197) of 0.968 ± 0.011 S/m. The electrical conductivity (321.15 K, x1 = 0.04) was 1.344 ± 0.011 S/m, the electrical conductivity (321.15 K, x1 = 0.0499) was 1.466 ± 0.009 S/m and the electrical conductivity (321.15 K, x1 = 0.0707) was 1.567 ± 0.01 S/m. The electrical conductivity (323.15 K, x1 = 0.0001281) was 0.0104 ± 0.009 S/m, the electrical conductivity (323.15 K, x1 = 0.0001586) was 0.0122 ± 0.011 S/m and the electrical conductivity (323.15 K, x1 = 0.0003312) was 0.0254 ± 0.021 S/m. The electrical conductivity (323.15 K, x1 = 0.0006135) was 0.0447 ± 0.026 S/m, the electrical conductivity (323.15 K, x1 = 0.001095) was 0.0729 ± 0.023 S/m and the electrical conductivity (323.15 K, x1 = 0.002002) was 0.125 ± 0.023 S/m. It also gave an electrical conductivity (323.15 K, x1 = 0.005707) of 0.296 ± 0.022 S/m, an electrical conductivity (323.15 K, x1 = 0.01) of 0.563 ± 0.02 S/m and an electrical conductivity (323.15 K, x1 = 0.0197) of 0.988 ± 0.012 S/m. For the same molecule, the electrical conductivity (323.15 K, x1 = 0.04) was 1.386 ± 0.011 S/m, the electrical conductivity (323.15 K, x1 = 0.0499) was 1.523 ± 0.01 S/m and the electrical conductivity (323.15 K, x1 = 0.0707) was 1.607 ± 0.01 S/m.

Reference: the NIST ThermoML archive (doi:10.1021/je4010678)
